Results from US20250197914A1, “MICROBIAL MEDIUM COMPOSITION FOR PRODUCING RETINOL, COMPRISING ANTI-OXIDANT, AND USE THEREOF” (CJ CHEILJEDANG CORPORATION, priority 2022, published 2025).

System: retinol-producing strains (Yarrowia lipolytica)
Assay: Flask test of retinol production of retinol-producing strains with antioxidants in the medium
Assay type: cell-based
Conditions: antioxidant added to YLMM2 medium at 0.01% to 0.05%; 30° C., 200 rpm; 48 hour culture; HPLC
Method: A flask test was performed to compare the degree of retinol production of retinol-producing strains according to the presence and absence, and the type of antioxidants. Each retinol production platform strain was inoculated in a 250 ml corner-baffled flask containing 25 ml of Yarrowia lipolytica minimal media2 (YLMM2) at an initial OD of 4, and 4 types of antioxidants, 3,5-Di-tert-4-butylhydroxytoluene (BHT), propyl gallate (PG), vitamin C, and glutathione (GSH), were added to the medium at a concentration of 0.01% to 0.05%, respectively. Culturing was carried out under conditions of 30° C. and 200 rpm.
To evaluate the degree of growth according to culture time, the OD value at a wavelength of 600 nm was measured using a spectrophotometer, and the method of measuring retinol concentrations is as follows; After the culture was completed, 1 ml of the culture medium was centrifuged to remove the supernatant, then 0.5 ml of dimethyl sulfoxide (DMSO, Sigma) was added and the cells were disrupted by agitation at 55° C. for 10 minutes (agitation; 2,000 rpm). Next, 0.5 ml of acetone (Sigma) containing 4% BHT was added and agitated (2,000 rpm) for 15 min at 45° C., and retinoids extracted in this manner were quantitatively analyzed using HPLC equipment.
Considering that the sugar consumption rate may vary depending on the type of antioxidants which were added to the medium, BHT, PG, vitamin C, and GSH were each cultured for 48 hours. After 48 hour-incubation, retinal and retinol were extracted and quantified.

SMILES	retinol concentration increase as compared to the control group without antioxidants
Cc1cc(C(C)(C)C)c(O)c(C(C)(C)C)c1 [BHT, 3,5-di-tert-4-butylhydroxytoluene]	up to 1.89 times
N[C@@H](CCC(=O)N[C@@H](CS)C(=O)NCC(=O)O)C(=O)O [GSH, glutathione]	≤ 1.21 times
CCCOC(=O)c1cc(O)c(O)c(O)c1 [PG, propyl gallate]	≤ 1.82 times
O=C1O[C@H]([C@@H](O)CO)C(O)=C1O [vitamin C, ascorbic acid]	≤ 1.44 times
